The target of the assay is T1, Dimer of Gag-Pol polyprotein [489-587] (Human immunodeficiency virus 1, UniProt P12497).
T1 construct: 489-587
Nature of the assay: Protease Inhibition Assay. How it is done:
The inhibitory activities of the compounds toward HIV-1 PR were determined by sodium dodecyl sulfate-polyacrylamide gel electrophoresis (SDS-PAGE) assay. The IC50 values of active compounds were determined using the partially purified protease and the synthetic substrate Ac-Ser-Gln-AsnTyr-Pro-Ile-Val-NH2.

The values that follow come from BindingDB's records for doi:10.1016/s0968-0896(98)00004-2 (Sankyo, 1998).

In general, pIC50 refers to the IC50 on a negative log10 scale, so that one unit is a factor of ten.

pIC50: −log10 of the molar value.

In turn, `CC(C)(C)NC(=O)[C@@H]1C[C@H](Cl)CN1C(=O)[C@@H](O)[C@H](Cc1ccccc1)NC(=O)c1ccccc1I` had a pIC50 of 7.85.

For the compound `Cc1cccc(C)c1C(=O)N[C@@H](Cc1ccccc1)[C@H](O)C(=O)N1C[C@@H](Cl)C[C@H]1C(=O)NC(C)(C)C`, the pIC50 is 8.44. Then `CC(C)(C)NC(=O)[C@@H]1C[C@H](Cl)CN1C(=O)[C@@H](O)[C@H](Cc1ccccc1)NC(=O)c1ccccc1N`, with 7.41. For `CC(C)(C)NC(=O)[C@@H]1C[C@H](Cl)CN1C(=O)[C@@H](O)[C@H](Cc1ccccc1)NC(=O)c1cccc(O)c1` the value was 8.05; for `CC(C)(C)NC(=O)[C@@H]1C[C@H](Cl)CN1C(=O)[C@@H](O)[C@H](Cc1ccccc1)NC(=O)c1ccccc1Cl` [2-Chlorobenzoyl-(2S,3S)-AHPBA-4(S)-Cl-Pro-NH-t-Bu], 7.96.

Compound `Cc1ccccc1C(=O)N[C@@H](Cc1ccccc1)[C@H](O)C(=O)N1C[C@@H](Cl)C[C@H]1C(=O)NC(C)(C)C` [2-Methylbenzoyl-(2S,3S)-AHPBA-4(S)-Cl-Pro-NH-t-Bu] gave a negative-log IC50 (pIC50) of 8.29. For `CC(C)(C)NC(=O)[C@@H]1C[C@H](Cl)CN1C(=O)[C@@H](O)[C@H](Cc1ccccc1)NC(=O)c1cccc(F)c1` [3-Fluorobenzoyl-(2S,3S)-AHPBA-4(S)-Cl-Pro-NH-t-Bu] the value was 7.70. The compound `CC(C)(C)NC(=O)[C@@H]1C[C@H](Cl)CN1C(=O)[C@@H](O)[C@H](Cc1ccccc1)NC(=O)c1ccc(O)cc1` [4-Hydroxybenzoyl-(2S,3S)-AHPBA-4(S)-Cl-Pro-NH-t-Bu] had a negative-log IC50 (pIC50) of 7.48.

Consider `COc1cccc(C(=O)N[C@@H](Cc2ccccc2)[C@H](O)C(=O)N2C[C@@H](Cl)C[C@H]2C(=O)NC(C)(C)C)c1O` [(2-Hydroxy-3-methoxy)benzoyl-(2S,3S) -AHPBA-4(S)-Cl-Pro-NH-t-Bu], for which the pIC50 was less than 6.00. Then `CO[C@@H]1OCCC[C@@H]1OC(=O)N[C@@H](Cc1ccccc1)[C@H](O)C(=O)N1C[C@@H](Cl)C[C@H]1C(=O)NC(C)(C)C` [(2R,3S)-2-methoxyoxan-3-yl N-[(2S,3S)-4-[(2S,4S)-2-(tert-butylcarbamoyl)-4-chloropyrrolidin-1-yl]-3-hydroxy-4-oxo-1-phenylbutan-2-yl]carbamate], with 7.43; and `CO[C@H]1OCC=C[C@H]1OC(=O)N[C@@H](Cc1ccccc1)[C@H](O)C(=O)N1C[C@@H](Cl)C[C@H]1C(=O)NC(C)(C)C` [(2S,3R)-2-methoxy-3,6-dihydro-2H-pyran-3-yl N-[(2S,3S)-4-[(2S,4S)-2-(tert-butylcarbamoyl)-4-chloropyrrolidin-1-yl]-3-hydroxy-4-oxo-1-phenylbutan-2-yl]carbamate], with 7.46; and `CC(C)(C)NC(=O)[C@@H]1C[C@H](Cl)CN1C(=O)[C@@H](O)[C@H](Cc1ccccc1)NC(=O)c1cccc(O)c1Br` [(2S,4S)-1-[(2S,3S)-3-[(2-bromo-3-hydroxyphenyl)formamido]-2-hydroxy-4-phenylbutanoyl]-N-tert-butyl-4-chloropyrrolidine-2-carboxamide], with 8.82. For `CC(C)(C)NC(=O)[C@@H]1C[C@H](Cl)CN1C(=O)[C@@H](O)[C@H](Cc1ccccc1)NC(=O)c1ccccc1Br` [(2S,4S)-1-[(2S,3S)-3-[(2-bromophenyl)formamido]-2-hydroxy-4-phenylbutanoyl]-N-tert-butyl-4-chloropyrrolidine-2-carboxamide] the value was 7.92; for `Cc1c(N)cccc1C(=O)N[C@@H](Cc1ccccc1)[C@H](O)C(=O)N1C[C@@H](Cl)C[C@H]1C(=O)NC(C)(C)C` [(2S,4S)-1-[(2S,3S)-3-[(3-amino-2-methylphenyl)formamido]-2-hydroxy-4-phenylbutanoyl]-N-tert-butyl-4-chloropyrrolidine-2-carboxamide], 8.27. Then `CC(C)(C)NC(=O)[C@@H]1C[C@H](Cl)CN1C(=O)[C@@H](O)[C@H](Cc1ccccc1)NC(=O)c1cccc2ccccc12` [(2S,4S)-N-tert-butyl-4-chloro-1-[(2S,3S)-2-hydroxy-3-(naphthalen-1-ylformamido)-4-phenylbutanoyl]pyrrolidine-2-carboxamide], with 8.05; and `CC(C)(C)NC(=O)[C@@H]1C[C@H](Cl)CN1C(=O)[C@@H](O)[C@H](Cc1ccccc1)NC(=O)c1ccccc1O` [(2S,4S)-N-tert-butyl-4-chloro-1-[(2S,3S)-2-hydroxy-3-[(2-hydroxyphenyl)formamido]-4-phenylbutanoyl]pyrrolidine-2-carboxamide], with less than 6.00.

The compound `Cc1ccc(O)c(C)c1C(=O)N[C@@H](Cc1ccccc1)[C@H](O)C(=O)N1C[C@@H](Cl)C[C@H]1C(=O)NC(C)(C)C` [(2S,4S)-N-tert-butyl-4-chloro-1-[(2S,3S)-2-hydroxy-3-[(3-hydroxy-2,6-dimethylphenyl)formamido]-4-phenylbutanoyl]pyrrolidine-2-carboxamide] gave a pIC50 of 8.60. Then `CCCc1c(O)cccc1C(=O)N[C@@H](Cc1ccccc1)[C@H](O)C(=O)N1C[C@@H](Cl)C[C@H]1C(=O)NC(C)(C)C` [(2S,4S)-N-tert-butyl-4-chloro-1-[(2S,3S)-2-hydroxy-3-[(3-hydroxy-2-propylphenyl)formamido]-4-phenylbutanoyl]pyrrolidine-2-carboxamide], with 8.80; and `CC(C)(C)NC(=O)[C@@H]1C[C@H](Cl)CN1C(=O)[C@@H](O)[C@H](Cc1ccccc1)NC(=O)c1ccccc1` [(2S,4S)-N-tert-butyl-4-chloro-1-[(2S,3S)-2-hydroxy-4-phenyl-3-(phenylformamido)butanoyl]pyrrolidine-2-carboxamide], with 7.59; and `CCCc1ccccc1C(=O)N[C@@H](Cc1ccccc1)[C@H](O)C(=O)N1C[C@@H](Cl)C[C@H]1C(=O)NC(C)(C)C` [(2S,4S)-N-tert-butyl-4-chloro-1-[(2S,3S)-2-hydroxy-4-phenyl-3-[(2-propylphenyl)formamido]butanoyl]pyrrolidine-2-carboxamide], with 7.54. For `CCc1c(O)cccc1C(=O)N[C@@H](Cc1ccccc1)[C@H](O)C(=O)N1C[C@@H](Cl)C[C@H]1C(=O)NC(C)(C)C` [(2S,4S)-N-tert-butyl-4-chloro-1-[(2S,3S)-3-[(2-ethyl-3-hydroxyphenyl)formamido]-2-hydroxy-4-phenylbutanoyl]pyrrolidine-2-carboxamide] the value was 9.05; for `Cc1c(F)cccc1C(=O)N[C@@H](Cc1ccccc1)[C@H](O)C(=O)N1C[C@@H](Cl)C[C@H]1C(=O)NC(C)(C)C` [(3-Fluoro-2-methyl)benzoyl-(2S,3S)-AHPBA-4(S)-Cl-Pro-NH-t-Bu], 8.25; for `Cc1c(O)cccc1C(=O)N[C@@H](Cc1ccccc1)[C@H](O)C(=O)N1C[C@@H](Cl)C[C@H]1C(=O)NC(C)(C)C` [(3-Hydroxy-2-methylbenzoyl)-(2(S)-hydroxy-3(S)-amino-phenylbutanoyl)-4(S)-Cl-Pro-NH-t-Bu], 9.10. Then `CC(C)(C)NC(=O)[C@@H]1C[C@H](Cl)CN1C(=O)[C@@H](O)[C@H](Cc1ccccc1)NC(=O)O[C@@H]1CO[C@H]2[C@@H]1OC[C@H]2O` [(3R,3aR,6R,6aR)-6-hydroxy-hexahydrofuro[3,2-b]furan-3-yl N-[(2S,3S)-4-[(2S,4S)-2-(tert-butylcarbamoyl)-4-chloropyrrolidin-1-yl]-3-hydroxy-4-oxo-1-phenylbutan-2-yl]carbamate], with 7.60; and `CC(C)(C)NC(=O)[C@@H]1C[C@H](Cl)CN1C(=O)[C@@H](O)[C@H](Cc1ccccc1)NC(=O)O[C@H]1CCCOC1` [(3S)-oxan-3-yl N-[(2S,3S)-4-[(2S,4S)-2-(tert-butylcarbamoyl)-4-chloropyrrolidin-1-yl]-3-hydroxy-4-oxo-1-phenylbutan-2-yl]carbamate], with 7.85. `CC(C)(C)NC(=O)[C@@H]1C[C@H](Cl)CN1C(=O)[C@@H](O)[C@H](Cc1ccccc1)NC(=O)O[C@H]1CCOC1` [(3S)-oxolan-3-yl N-[(2S,3S)-4-[(2S,4S)-2-(tert-butylcarbamoyl)-4-chloropyrrolidin-1-yl]-3-hydroxy-4-oxo-1-phenylbutan-2-yl]carbamate] gave a negative logarithm of the IC50 (pIC50) of 8.29. For `COC1O[C@H]2[C@H](OC(=O)N[C@@H](Cc3ccccc3)[C@H](O)C(=O)N3C[C@@H](Cl)C[C@H]3C(=O)NC(C)(C)C)[C@H](OC)OC[C@H]2O1` (stereo partly drawn) [(3aR,6R,7S,7aR)-2,6-dimethoxy-hexahydro-[1,3]dioxolo[4,5-c]pyran-7-yl N-[(2S,3S)-4-[(2S,4S)-2-(tert-butylcarbamoyl)-4-chloropyrrolidin-1-yl]-3-hydroxy-4-oxo-1-phenylbutan-2-yl]carbamate] the value was less than 6.00; for `CC(C)(C)NC(=O)[C@@H]1C[C@H](Cl)CN1C(=O)[C@@H](O)[C@H](Cc1ccccc1)NC(=O)OC1CCS(=O)(=O)C1` (stereo partly drawn) [[3(R,S) - (1,1 - Dioxo - tetrahydrothiophenyl)oxy]carbonyl-(2S,3S)-AHPBA-4(S)-Cl-Pro-NH-t-Bu], 7.96. For `CC(C)(C)NC(=O)[C@@H]1C[C@H](Cl)CN1C(=O)[C@@H](O)[C@H](Cc1ccccc1)NC(=O)OC1CCOC1` (stereo partly drawn) [[3(R,S)-(Tetrahydrofuranyl)oxy]carbonyl-(2S,3S)-AHPBA-4(S)-Cl-Pro-NH-t-Bu] the value was 8.31; for `CC(C)(C)NC(=O)[C@@H]1C[C@H](Cl)CN1C(=O)[C@@H](O)[C@H](Cc1ccccc1)NC(=O)O[C@H]1C=CCOC1` [[5(R) - (5,6 - Dihydro - 2H-pyranyl)oxy]carbonyl - (2S,3S)-AHPBA-4(S)-Cl-Pro-NH-t-Bu], 8.35. For the compound `CO[C@@H]1OCC=C[C@@H]1OC(=O)N[C@@H](Cc1ccccc1)[C@H](O)C(=O)N1C[C@@H](Cl)C[C@H]1C(=O)NC(C)(C)C` [[5(S)-[6(R)-Methoxy-5,6-dihydro-2H-pyranyl]oxy]carbonyl-(2S,3S)-AHPBA-4(S)-Cl-Pro-NH-t-Bu], the pIC50 was 7.54.

For `CC(C)(C)NC(=O)[C@@H]1C[C@H](Cl)CN1C(=O)[C@@H](O)[C@H](Cc1ccccc1)NC(=O)c1ccc2ccccc2c1` [beta-Naphthoyl-(2S,3S)-AHPBA-4(S)-Cl-Pro-NH-t-Bu], the pIC50 is 7.30.
